The results in this text go back to patent US20240208965A1, “HETEROARYL ALKYLENE SUBSTITUTED 2-OXOQUINAZOLINE DERIVATIVES AS METHIONINE ADENOSYLTRANSFERASE 2A INHIBITORS” (IDEAYA BIOSCIENCES, INC., priority 2020, published 2024).

The target in the first assay is T1, Human MAT2A (Homo sapiens, UniProt P31153).
T1 construct: Human MAT2A: Cepter, amino acids 1-395 Clone ID 334, lot 00023-148; purchased Cepter clone ID 334, lot 00023-148
T1 sequence (P31153 whole entry, the tested form may be a part): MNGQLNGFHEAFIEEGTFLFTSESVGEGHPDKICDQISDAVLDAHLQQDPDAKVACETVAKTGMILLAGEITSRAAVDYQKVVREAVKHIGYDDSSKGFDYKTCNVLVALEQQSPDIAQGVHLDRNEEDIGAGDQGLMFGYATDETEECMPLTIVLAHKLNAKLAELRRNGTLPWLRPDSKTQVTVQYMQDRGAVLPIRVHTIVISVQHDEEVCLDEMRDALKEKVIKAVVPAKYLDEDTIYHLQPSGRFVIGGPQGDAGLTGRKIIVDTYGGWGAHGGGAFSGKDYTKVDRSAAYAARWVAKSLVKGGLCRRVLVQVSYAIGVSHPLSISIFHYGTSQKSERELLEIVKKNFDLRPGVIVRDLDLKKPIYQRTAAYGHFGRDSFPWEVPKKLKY
Nature of the assay: Phosphate Sensor Fluorescence Assay (Biologic Example A). It counts as biochemical. The settings on record: MAT2A inhibition, Biological Example A procedure (Compounds 1.001-1.028); 500 uM L-methionine, 500 uM ATP. As for the experimental part:
(§1) The ability of the compound of present disclosure to inhibit MAT2A enzyme was determined using a Phosphate Sensor Fluorescence Assay described below.
Biologic Example A. Phosphate Sensor Fluorescence Assay
(§2) MAT2A enzyme is incubated with a test compound in DMSO or DMSO and its substrates (L-methionine and ATP) in a microtiter plate. The enzymatic reaction is stopped by the addition of Working Phosphate Sensor Mixture. The plate is analyzed for fluorescence at 450 nm. The high control (DMSO with enzyme and its substrates) gives high fluorescence which represents no inhibition of enzymatic activity while the low control (DMSO with MAT2A substrates and no enzyme) gives low fluorescence which represents full inhibition of enzymatic activity.
• Human MAT2A: Cepter, amino acids 1-395 • Tris, pH 7.5: Invitrogen cat #15567-027 • KCl: Ambion cat #AM9640G • MgCl2: Ambion cat #AM9530G • Brij-35: Sigma cat B4184-10ML • DTT: Goldbio cat #DTT100 • BGG: Sigma cat #G5009-25G • PNP: Novus Biologicals cat #NBP1-50872 • 7-MEG: Cayman Chemical cat #15988 • L-Methionine: Alfa Aesar cat #J61904 • ATP: Alfa Aesar cat #J60336 • Phosphate Sensor: Thermo Fisher cat #PV4407 • EDTA: Life Tech cat #15575-038 • Assay plate: 384-well black polypropylene plate: Thomas Scientific cat #1149Q35
• Assay Buffer: 50 mM Tris, pH 7.5/50 mM KCl/10 mM MgCl2/0.01% Brij-35/1 mM DTT/0.1% BGG/40 nM PNP/6 uM 7-MEG • MAT2A: 10 nM for Cepter clone ID 329, lot 00023-123 before the addition of Working Phosphate Sensor Mixture • 5 nM for Cepter clone ID 334, lot 00023-148 before the addition of Working Phosphate Sensor Mixture • L-methionine: 500 uM before the addition of Working Phosphate Sensor Mixture • ATP: 500 uM before the addition of Working Phosphate Sensor Mixture
(§3) For the assay, a mixture of 1 mM L-methionine/1 mM ATP (2× final pre-stopped concentration) in assay buffer; MAT2A (2× final pre-stopped concentration) in Assay Buffer and Working Phosphate Sensor Mixture (1.5 uM Phosphate Sensor/30 mM EDTA in Assay Buffer, which is 3× final concentrations) were prepared. Test compounds or DMSO were added to the appropriate well suing D300e digital dispenser. 5 μl/well of Assay Buffer was added to the wells corresponding to the negative control and 5 μl/well of MAT2A was added to all the wells except for those corresponding to the negative control. After incubating the plate at room temperature for 15 minutes, 5 μl/well of the 1 mM L-methionine/1 mM ATP mixture was added to all wells. The plate was centrifuged at 1000 rpm for 1 minute and then incubated at room temperature for 1 hour. 5 μl of the Working Phosphate Sensor Mixture was added to all wells and the plate was centrifuged at 1000 rpm for 1 minute. The plate was read for fluorescence at 450 nm after exciting at 430 nm.
(§4) Percent inhibition was calculated in Chemical and Biological Information System (CBIS), (ChemInnovation Software Inc.). Curves were fitted by CBIS as % inhibition vs. log [compound concentration] using a 4-parameter inhibition model.
(§5) Fit=(A+((B−A)/(1+((C/x)^D))))
(§6) Compounds 1.001-1.028 were tested using the procedure described in Bioogical Example A, described above. Compounds 1.029-1.070 were tested using the procedure described in Biological Example B, described above.
`C[C@@H](c1c[nH]cn1)n1c(=O)nc(N2CCCC2)c2ccc(C(F)(F)F)cc21` (single isomer, unassigned) [1.024] yielded an IC50 of 10 to 200 nM.

`CC(c1c[nH]cn1)n1c(=O)nc(N2CC[C@@H](O)C2)c2ccc(C(F)(F)F)cc21` (mixture of isomers) [1.012, 1-(1-(1H-imidazol-4-yl)ethyl)-4-((R)-3-hydroxypyrrolidin-1-yl)-7-(trifluoromethyl)quinazolin-2(1H)-one] returned an IC50 of 10 to 200 nM.

`C[C@H](c1c[nH]cn1)n1c(=O)nc(N2CCC2)c2ccc(C(F)(F)F)cc21` (single isomer, unassigned) [1.027] yielded an IC50 of 200 to 500 nM.

In turn, `C[C@@H](c1c[nH]cn1)n1c(=O)nc(N2CCC2)c2ccc(C(F)(F)F)cc21` (single isomer, unassigned) [1.028] came in with an IC50 of 10 to 200 nM.

For `C[C@H](c1c[nH]cn1)n1c(=O)nc(N2CC[C@@H](O)C2)c2ccc(C(F)(F)F)cc21` (single isomer, unassigned) [1.013], the IC50 is 10 to 200 nM.

For the molecule `CNc1nc(=O)n(Cc2c[nH]c(C(F)(F)F)n2)c2cc(C(F)(F)F)ccc12` [1.010, 4-(methylamino)-7-(trifluoromethyl)-1-((2-(trifluoromethyl)-1H-imidazol-4-yl)methyl)quinazolin-2(1H)-one], the IC50 was in the range of 1000 to 10000 nM.

The molecule `C[C@H](c1c[nH]cn1)n1c(=O)nc(N(C)C)c2ccc(C(F)(F)F)cc21` (single isomer, unassigned) [1.016] showed an IC50 of 10 to 200 nM.

For `CC(c1c[nH]cn1)n1c(=O)nc(N(C)C)c2ccc(C(F)(F)F)cc21` (centres unmarked) [1.015, 1-(1-(1H-imidazol-4-yl)ethyl)-4-(dimethylamino)-7-(trifluoromethyl)quinazolin-2(1H)-one], the IC50 lay in the range of 10 to 200 nM.

Turning to `CNc1nc(=O)n(Cc2c[nH]nn2)c2cc(C3CC3)ccc12` [1.006, 1-((1H-1,2,3-triazol-4-yl)methyl)-7-cyclopropyl-4-(methylamino)quinazolin-2(1H)-one], the IC50 was in the range of 1000 to 10000 nM.

For the molecule `CNc1nc(=O)n(Cc2c[nH]nn2)c2cc(C(F)(F)F)ccc12` [1.005, 1-((1H-1,2,3-triazol-4-yl)methyl)-4-(methylamino)-7-(trifluoromethyl)quinazolin-2(1H)-one], the IC50 lay within 1000 to 10000 nM.

`CC(c1c[nH]cn1)n1c(=O)nc(N2CC[C@H](O)C2)c2ccc(C(F)(F)F)cc21` (mixture of isomers) [1.019, 1-(1-(1H-imidazol-4-yl)ethyl)-4-((S)-3-hydroxypyrrolidin-1-yl)-7-(trifluoromethyl)quinazolin-2(1H)-one] came in with an IC50 of 200 to 500 nM.

In turn, `CNc1nc(=O)n([C@@H](C)c2c[nH]cn2)c2cc(C(F)(F)F)ccc12` (single isomer, unassigned) [1.009] registered an IC50 of 10 to 200 nM.

As for `C[C@@H](c1c[nH]cn1)n1c(=O)nc(N(C)C)c2ccc(C(F)(F)F)cc21` (single isomer, unassigned) [1.017], the IC50 is 10 to 200 nM.

For the molecule `CC(c1c[nH]cn1)n1c(=O)nc(N2CC[C@H](CO)C2)c2ccc(C(F)(F)F)cc21` (stereo partly drawn) [1.011, 1-(1-(1H-imidazol-4-yl)ethyl)-4-((S)-3-(hydroxymethyl)pyrrolidin-1-yl)-7-(trifluoromethyl)quinazolin-2(1H)-one], the IC50 is 10 to 200 nM.

For the molecule `CNc1nc(=O)n(Cc2c[nH]cn2)c2cc(Cl)ccc12` [1.001, 1-((1H-imidazol-4-yl)methyl)-7-chloro-4-(methylamino)quinazolin-2(1H)-one], the IC50 lay in the range of 10 to 200 nM.

Regarding `CO[C@H]1CCN(c2nc(=O)n([C@H](C)c3c[nH]cn3)c3cc(C(F)(F)F)ccc23)C1` (single isomer, unassigned) [1.021], the IC50 fell in the range of 200 to 500 nM.

For the molecule `CC(c1c[nH]cn1)n1c(=O)nc(N2CC[C@@H](CO)C2)c2ccc(C(F)(F)F)cc21` (mixture of isomers) [1.020, 1-(1-(1H-imidazol-4-yl)ethyl)-4-((R)-3-(hydroxymethyl)pyrrolidin-1-yl)-7-(trifluoromethyl)quinazolin-2(1H)-one], the IC50 is 200 to 500 nM.

As for `C[C@@H](c1c[nH]cn1)n1c(=O)nc(N2CC[C@@H](O)C2)c2ccc(C(F)(F)F)cc21` (single isomer, unassigned) [1.014], the IC50 was in the range of 10 to 200 nM.

The next assay deals with T1, Human MAT2A. Nature of the assay: Phosphate Sensor Fluorescence Assay (Biologic Example B). The format is biochemical. The conditions noted are these: MAT2A inhibition, Biological Example B procedure (Compounds 1.029-1.070); 5.8 nM MAT2A, 500 uM L-methionine, 500 uM ATP. As for the experimental part:
as §1
Biologic Example B. Phosphate Sensor Fluorescence Assay
as §2
• Human MAT2A: Cepter, amino acids 1-395 Clone ID 334, lot 00023-148 • Tris, pH 7.5: Invitrogen cat #15567-027 • KCl: Ambion cat #AM9640G • MgCl2: Ambion cat #AM9530G • Brij-35: Sigma cat B4184-10ML • DTT: Goldbio cat #DTT100 • BGG: Sigma cat #G5009-25G • PNP: Novus Biologicals cat #NBP1-50872 • 7-MEG: Cayman Chemical cat #15988 • L-Methionine: JTBaker P/N 2085-05 • ATP: Promega P/N V915B • Phosphate Sensor: Invitrogen cat #PV4407 • EDTA: Life Tech cat #15575-038 • Assay plate: 384-well black polypropylene plate: Corning P/N 3573
• Assay Buffer: 50 mM Tris, pH 7.5/50 mM KCl/10 mM MgCl2/0.01% Brij-35/1 mM DTT/0.01% BGG/40 nM PNP/6 uM 7-MEG • MAT2A: 5.8 nM MAT2A (1-395), Cepter, clone ID 334, lot 00023-148 before the addition of Working Phosphate Sensor Mixture • L-methionine: 500 uM before the addition of Working Phosphate Sensor Mixture • ATP: 500 uM before the addition of Working Phosphate Sensor Mixture
as §3, with “using a Beckman Coulter Echo 550 acoustic liquid handler. 10 μL/well” for “suing D300e digital dispenser. 5 μl/well”, “10 μL/well” for “5 μl/well”, “10 μL” for “5 μl”, “nm on a Tecan Spark microplate reader.” for “nm.”
as §4, §5, §6
`CCC(c1cnc[nH]1)n1c(=O)nc(N(C)C)c2ccc(C(F)(F)F)cc21` (centres unmarked) [1.033, 1-(1-(1H-imidazol-5-yl)propyl)-4-(dimethylamino)-7-(trifluoromethyl)quinazolin-2(1H)-one] displayed an IC50 of 200 to 500 nM.

Molecule `C[C@H](c1nc[nH]n1)n1c(=O)nc(N(C)C)c2ccc(Cl)cc21` (single isomer, unassigned) [1.060] yielded a 50% inhibitory concentration (IC50) of 10 to 200 nM.

For the molecule `CN(C)c1nc(=O)n(Cc2ccccn2)c2nc(C(F)(F)F)ccc12` [1.052, 4-(Dimethylamino)-1-(pyridin-2-ylmethyl)-7-(trifluoromethyl)pyrido[2,3-d]pyrimidin-2(1H)-one], the IC50 was in the range of 10 to 200 nM.

For the molecule `C[C@@H](c1nc[nH]n1)n1c(=O)nc(N(C)C)c2ccc(Cl)cc21` (single isomer, unassigned) [1.061], the IC50 lay within 500 to 1000 nM.

As to `C[C@@H](c1cc[nH]n1)n1c(=O)nc(N)c2ccc(Cl)cc21` (single isomer, unassigned) [1.070], the IC50 was 200 to 500 nM.

The molecule `CN(C)c1nc(=O)n(C(c2cnc[nH]2)C2CC2)c2cc(C(F)(F)F)ccc12` (centres unmarked) [1.045, 1-(Cyclopropyl(1H-imidazol-5-yl)methyl)-4-(dimethylamino)-7-(trifluoromethyl)quinazolin-2(1H)-one] came in with an IC50 of 200 to 500 nM.

In turn, `C[C@H](c1cnc[nH]1)n1c(=O)nc(N(C)C)c2ccc(Br)cc21` (single isomer, unassigned) [1.043] showed an IC50 of 10 to 200 nM.

The same assay, now with this note: MAT2A inhibition, Biological Example B procedure; printed as a numeric bound, not a class symbol.
For `Cc1ncc(Cn2c(=O)nc(N(C)C)c3ccc(C(F)(F)F)cc32)[nH]1` [1.049, 4-(Dimethylamino)-1-((2-methyl-1H-imidazol-5-yl)methyl)-7-(trifluoromethyl)quinazolin-2(1H)-one], the IC50 was > 10000 nM.

For orientation: IC50 means the concentration that inhibits the measured activity by half. Low values mean inhibition by little substance, high ones a need for much substance.
